Activity calls are given as the source filed them. The rule behind the calls is not given here.

One series has as its system SR. As to the kind of experiment: Cytotoxicity against human SR cells assessed as growth inhibition after 48 hrs by SRB assay. It is filed as functional. In general terms: Sulforhodamine B stains cellular protein and so reports cell mass.
For another series, the system named is HCC 2998. As to the kind of experiment: Cytotoxicity against human HCC2998 cells assessed as growth inhibition after 48 hrs by SRB assay. It is filed as functional. The settings on record: HCC 2998, 48 h.
Another series concerns EKVX. As to the kind of experiment: Cytotoxicity against human EKVX cells assessed as growth inhibition after 48 hrs by SRB assay. It is filed as functional.
The test system of another series is CAKI-1. As to the kind of experiment: Cytotoxicity against human Caki1 cells assessed as growth inhibition after 48 hrs by SRB assay. It counts as functional. The settings on record: CAKI-1, 48 h.
A further series has as its system UACC-62. As to the kind of experiment: Cytotoxicity against human UACC62 cells assessed as growth inhibition after 48 hrs by SRB assay. The settings on record: UACC-62, 48 h. It counts as functional.
Another series deals with OVCAR-4. As to the kind of experiment: Cytotoxicity against human OVCAR4 cells assessed as growth inhibition after 48 hrs by SRB assay. It counts as functional. The settings on record: OVCAR-4, 48 h.
The subject of the next series is NCI-H460. The series can be described thus: Cytotoxicity against human NCI-H460 cells assessed as growth inhibition after 48 hrs by SRB assay. The settings on record: NCI-H460, 48 h. It counts as functional.
A further series relates to Malme-3M. As to the kind of experiment: Cytotoxicity against human MALME-3M cells assessed as growth inhibition after 48 hrs by SRB assay. It is filed as functional.
Another series relates to NCI/ADR-RES. The series can be described thus: Cytotoxicity against human NCI-ADR-RES cells assessed as growth inhibition after 48 hrs by SRB assay. It counts as functional.
The next series deals with K562. The series can be described thus: Cytotoxicity against human K562 cells assessed as growth inhibition after 5 days by MTT assay. Conditions: K562, 120 h. It counts as functional, cell-based. On the technique in general: Tetrazolium dyes change colour on reduction, which living cells bring about.
A further series deals with 786-0. As to the kind of experiment: Cytotoxicity against human 786-0 cells assessed as growth inhibition after 48 hrs by SRB assay. It is filed as functional. The settings on record: 786-0, 48 h.
A further series concerns TK-10. The series can be described thus: Cytotoxicity against human TK10 cells assessed as growth inhibition after 48 hrs by SRB assay. It is filed as functional. The settings on record: TK-10, 48 h.
A further series has as its system HOP-92. The series can be described thus: Cytotoxicity against human HOP92 cells assessed as growth inhibition after 48 hrs by SRB assay. Conditions: HOP-92, 48 h. It is filed as functional.
The subject of series [1] is Mus musculus. The series can be described thus: Toxicity in human Calu6 cells xenografted nu/nu CBA mouse assessed as change in body weight at 67.5 to 135 mg/kg, ip administered on day 1 and 5 measured daily over 12 days. The settings on record: in vivo, 288 h. It is filed as organism-based. In general terms: In xenograft studies the graft and the host belong to different species.

Series [2] has as its system Calu-6. As to the kind of experiment: Antitumor activity against human Calu6 cells xenografted in nu/nu CBA mouse assessed as tumor growth inhibition at 67.5 to 135 mg/kg, ip administered on day 1 and 5 measured on day 2 and 6 post dose. It is filed as functional, organism-based.
In series [3] the test system is Calu-6. The series can be described thus: Antitumor activity against human Calu6 cells xenografted in nu/nu CBA mouse assessed as tumor growth inhibition at 67.5 to 135 mg/kg, ip administered on day 1 and 5 measured on day 3 to 4 and day 7 to 16 post dose. It counts as functional, organism-based.
The test system of series [4] is DLD-1. The series can be described thus: Induction of vascular shutdown in human DLD1 cells xenografted in Balb/C immunodeficient nude mouse assessed as vascular element counts at 400 mg/kg, iv at 1 hr post dose by […] dye-based microscopic method (reference value: 3.73 +/- 3.1%). It is filed as functional.
The test system of series [5] is DLD-1. As to the kind of experiment: Induction of vascular shutdown in human DLD1 cells xenografted in Balb/C immunodeficient nude mouse assessed as vascular element counts at 400 mg/kg, iv at 24 hrs post dose by […] dye-based microscopic method (reference value: 3.73 +/- 3.1%). It is filed as functional.
In series [6] the test system is Mus musculus. The series can be described thus: Toxicity in human DLD1 cells xenografted Balb/C immunodeficient nude mouse assessed as body weight loss at 200 to 400 mg/kg, iv administered day 2 and 4 measured 14 days post dose. It counts as organism-based. Conditions: in vivo, 336 h.
Series [7] concerns DLD-1. As to the kind of experiment: Induction of vascular shutdown in human DLD1 cells xenografted in Balb/C immunodeficient nude mouse at 400 mg/kg, iv by […] dye-based microscopic method. It is filed as functional, organism-based. Conditions: TDE = time-dependent effect.
The subject of series [8] is DLD-1. As to the kind of experiment: Vascular disrupting activity in human DLD1 cells xenografted in Balb/C immunodeficient nude mouse assessed as induction of necrosis by measuring necrotic area at 400 mg/kg, iv at 4 hrs post dose by haematoxylin and eosin staining-based assay (reference value: 19 +/- 9.6%). It counts as functional.
For series [9], the system named is DLD-1. The series can be described thus: Vascular disrupting activity in human DLD1 cells xenografted in Balb/C immunodeficient nude mouse assessed as induction of necrosis by measuring necrotic area at 400 mg/kg, iv at 1 hr post dose by haematoxylin and eosin staining-based assay (reference value: 19 +/- 9.6%). It counts as functional.
Series [10] concerns DLD-1. The series can be described thus: Induction of vascular shutdown in human DLD1 cells xenografted in Balb/C immunodeficient nude mouse assessed as vascular element counts at 400 mg/kg, iv at 4 hrs post dose by […] dye-based microscopic method (reference value: 3.73 +/- 3.1%). It is filed as functional.
In series [11] the test system is DLD-1. As to the kind of experiment: Vascular disrupting activity in human DLD1 cells xenografted in Balb/C immunodeficient nude mouse assessed as induction of necrosis by measuring necrotic area at 400 mg/kg, iv at 24 hrs post dose by haematoxylin and eosin staining-based assay (reference value: 19 +/- 9.6%). It is filed as functional.

On to `COc1ccc2c(c1)COCc1cc(OC)c(OC)c(OC)c1-2`, for which the concentration for 50% growth inhibition (GI50) (as a rule, the concentration at which growth is held to half of that of the control) with SR amounted to 40 nM; with HCC 2998, 220 nM; with EKVX it was 600 nM; with CAKI-1, 30200 nM; in the series with UACC-62, 80 nM; in the series with OVCAR-4, 740 nM. In addition, the 50% growth inhibitory concentration (GI50) with NCI-H460 is 170 nM; with Malme-3M it was above 100000 nM; with NCI/ADR-RES, 70 nM; in the series with 786-0, 340 nM; with TK-10, above 100000 nM; in the series with HOP-92, above 100000 nM. Further, the concentration for half-maximal inhibition (IC50) (as a rule, the concentration at which inhibition is half-maximal) in the series with K562 is 110000 nM.

Regarding `COc1ccc2c(c1O)COCc1cc(OC)c(OC)c(OC)c1-2`, the concentration for 50% growth inhibition (GI50) with SR came to 40 nM; in the series with HCC 2998, 320 nM; in the series with CAKI-1, 830 nM; in the series with UACC-62, 1000 nM; in the series with OVCAR-4, 710 nM; with NCI-H460, 310 nM. Further, the GI50 in the series on NCI/ADR-RES was 50 nM; in the series with 786-0 it was 430 nM; in the series with TK-10, above 100000 nM; in the series on HOP-92, 590 nM. The Activity result in the series on Mus musculus [1] is listed as “Non-Toxic”. Moreover, in the series on Calu-6 [2], the TGI result was “Active”. Besides, the TGI result in the series on Calu-6 [3] is “inactive”. Moreover, the IC50 with K562 is 34000 nM.

On to `COc1ccc2c(c1OP(=O)([O-])[O-])COCc1cc(OC)c(OC)c(OC)c1-2.[Na+].[Na+]`, for which the 50% growth inhibitory concentration (GI50) in the series on SR stood at 190 nM; in the series on HCC 2998, 420 nM; in the series on EKVX, 680 nM; in the series with CAKI-1, 790 nM; in the series on UACC-62, 5500 nM; with OVCAR-4 it was 1290 nM. Moreover, the concentration for 50% growth inhibition (GI50) in the series on NCI-H460 worked out at 360 nM; in the series with Malme-3M, 2510 nM; in the series on NCI/ADR-RES it was 280 nM; in the series on 786-0, 720 nM. In addition, the Activity in the series with DLD-1 [4] is 0.33%; in the series on DLD-1 [5], 0.95%; with Mus musculus [6] it was “Non-Toxic”; in the series on DLD-1 [7], “Tde”; with DLD-1 [8], 26%; in the series on DLD-1 [9], 27.1%. Besides, the Activity in the series with DLD-1 [10] turned out to be 1.96%; with DLD-1 [11], 74.1%. Also, the IC50 with K562 was 230 nM.

The record behind these values is ChEMBL document CHEMBL4002643, “Tubulin-binding dibenz[c,e]oxepines: Part 2. Structural variation and biological evaluation as tumour vasculature disrupting agents” (Bioorg Med Chem, 2017).
